Series [1] can be described thus: in vivo. Also noted: species or system mice. Particulars: mouse, po.
The test system of series [2] is cervical carcinoma cells HeLa. Put plainly: Inhibition against other carcinoma cells: HeLa. The class given is cell-based, human. The note with it: 50 μg/ml. Here is the method: (§1) Tested were three types of human carcinoma cells, pancreatic carcinoma cells PANC-1, cervical carcinoma cells HeLa, and neuroblastoma cells GOTO. For each type, about 2×10^5 cells were spread and cultured in a dish having a diameter of 3.5 cm. After one day, compound (1) was added to the culture in a concentration of 50 μg/ml. The number of cells was counted after two days.

Series [3] is described as follows: in vivo. Particulars: rat, po. Set-up: species or system rats.
The subject of series [4] is HeLa cells. Put plainly: Anti-carcinogenesis-promoter action: inhibition of TPA-promoted phospholipid synthesis (32Pi uptake) in HeLa cells. The class given is cell-based. The note with it: Homo sapiens, read-out: Inhibition (%) of cell phospholipid synthesis promotion by TPA. Here is the method: A sample (50 μg/ml) was added to HeLa cells on the second day of cultivation. After 24 hours, TPA (5×10^-8 M) and ^32 Pi (50 μci/culture) were added at the same time. After 4 hours, a phospholipid fraction was extracted to determine the radioactivity of ^32 Pi taken in the fraction.

Series [5] relates to pancreatic carcinoma cells PANC-1. Description: Inhibition against other carcinoma cells: PANC-1. The series is classed as cell-based, human. Particulars: PANC-1, 50 μg/ml. Here is the method: as §1
The test system of series [6] is mouse skin two-stage carcinogenesis. Description: Inhibition of promotion stage of mouse skin in vivo two-stage carcinogenesis (DMBA/TPA). Set-up: species or system ICR female mice. Particulars: 1 mg applied, twice a week, 1 μg TPA. Here is the method:
A compound was examined whether it could inhibit the promotion stage of mouse skin in vivo two-stage carcinogenesis. More particularly, a group of 15 ICR female mice was tested by once applying 100 μg of DMBA as an initiator to the skin of each mouse for initiation of carcinogenesis and then applying a test solution (identified below) twice a week. Inhibition of carcinogenesis was examined during the test which continued for 18 weeks in total. The promoter used was TPA.
1 mg of compound (1) applied

The test system of series [7] is gastric carcinoma cells HGC-27. Put plainly: Inhibition against gastric carcinoma cells in varying concentrations. Particulars: two days. The class given is cell-based. Here is the method:
In a dish having a diameter of 3.5 cm, about 2×10^5 gastric carcinoma cells HGC-27 were spread and cultured. After one day, compound (1) was added to the culture in varying concentrations of 5, 10, 25, 50, and 75 μg/ml. The number of cells was counted after two days. The results are shown in FIG. 6 in which the number of cells is plotted relative to the concentration of compound (1).

Series [8] is described as follows: Solubility of compound (1). The class given is physicochemical.
The test system of series [9] is gastric carcinoma cells HGC-27. Put plainly: Inhibition against gastric carcinoma cells with time. The class given is cell-based. The note with it: 25 μg/ml, number of cells with time. Here is the method: In a dish having a diameter of 3.5 cm, about 2×10^4 gastric carcinoma cells HGC-27 were spread and cultured. After one day, compound (1) was added to the culture in a concentration of 25 μg/ml and the number of cells was counted with the lapse of time. The results are shown in FIG. 5 in which the number of cells is plotted relative to the culturing time.

The subject of series [10] is neuroblastoma cells GOTO. Description: Inhibition against other carcinoma cells: GOTO. The class given is cell-based, human. The note with it: 50 μg/ml. Here is the method: as §1
Setting [11] is: Homo sapiens, 48 h, two days, read-out: Number of cells, Test group/Control.
[12] abbreviates: sample 50 μg/ml, TPA 5×10^-8 M, HeLa cells.

Like-named read-outs stand apart in the source and are kept apart here. Some results are limits rather than exact numbers.

`CCCCCc1oc(C)c(OC)c(=O)c1O` [Compound (1), 3-hydroxy-6-methyl-5-methoxy-2-pentyl-4H-pyran-4-one]: the LD50 in series [1] and in [3] was at least 1000 mg/kg in each case. For the same compound, the “Number of cells (×10^5), Test group” value was 4.70 ×10^5 in series [2] (two days (control 11.20)), 2.45 ×10^5 in series [5] (two days (control 8.95)) and 4.85 ×10^5 in series [10] (two days (control 10.95)). Further, the activity at 50 µg/mL in [2] (setting [11]) turned out to be 42%; in series [5] (setting [11]), 27.3%; in [10] (Homo sapiens, Neuroblastoma cell, 48 h, two days, read-out: Number of cells, Test group/Control), 44.3%. For the same compound, the inhibition (as a rule, the percentage by which the read-out fell short of the control) at 50 µg/mL in [4] (setting [12]) was determined as 83%. Also, the “average number of carcinomas per mouse” value in series [6] (18th week (control 2.38)) stood at 0.22. The “percentage of mice in which carcinomas developed” value in series [6] (18th week (control 50%)) was determined as 13%. The “concentration dependence of inhibitory effect on gastric carcinoma cells HGC-27” value in [7] (5, 10, 25, 50, and 75 μg/ml) is reported as “dependent on its concentration or dose”. The minimal effective concentration in series [7] (Homo sapiens, HGC-27, 48 h, 5 to 75 μg/ml, read-out: concentration with significant inhibitory effect on gastric carcinoma cells HGC-27) was at most 5 µg/mL. The “solubility in organic solvents” value in [8] (methanol, acetone, chloroform, hexane, and ethyl acetate) is “soluble”. The solubility in water entry in series [8] (water) is “difficultly soluble”. Besides, the “inhibition of propagation of gastric carcinoma cells HGC-27” value in [9] was “fully effective in inhibiting the propagation”.

On to `CCCCCc1oc(C)c(OC)c(=O)c1OC` [Compound (2), 6-methyl-3,5-dimethoxy-2-pentyl-4H-pyran-4-one], for which the inhibition at 50 µg/mL in series [4] (setting [12]) stood at 65.3%.

Turning to `CCCCCc1oc(C)c(OC)c(=S)c1O` [Compound (3), 3-hydroxy-6-methyl-5-methoxy-2-pentyl-4H-pyran-4-thione], in series [4] (setting [12]), the inhibition at 50 µg/mL worked out at 75%.

Take `CCCCCC1=NC(C)=C(OC)C(=O)C1O` (stereo not drawn) [Compound (4), 3-hydroxy-6-methyl-5-methoxy 2-pentyl-4-pyridone]: the inhibition at 50 µg/mL in series [4] (setting [12]) turned out to be 51.2%.

Turning to `CCCCCc1c(O)c(=O)c(OC)c(C)n1C` [Compound (5), 3-hydroxy-1,6-dimethyl-5-methoxy 2-pentyl-4-pyridone], the inhibition at 50 µg/mL in series [4] (setting [12]) was determined as 24.9%.

With `CCCCCc1c(O)c(=S)c(OC)c(C)n1C` [Compound (7), 3-hydroxy-1,6-dimethyl-5-methoxy-2-pentyl 4-pyridinethione], the inhibition at 50 µg/mL in series [4] (setting [12]) was 70.6%.

In the case of `Cc1occc(=O)c1O` [Compound (8), 3-hydroxy-2-methyl 4H-pyran-4-one], in series [4] (setting [12]), the inhibition at 50 µg/mL was found to be 3.1%.

Consider `Cc1occc(=S)c1O` [Compound (9), 3-hydroxy-2-methyl-4H-pyran-4-thione], for which, in series [4] (setting [12]), the inhibition at 50 µg/mL is 0%.

As for `O=c1cc(C=Cc2ccccc2)occ1O` [Compound (10), 3-hydroxy-6-styryl-4H-pyran-4-one], in series [4] (setting [12]), the inhibition at 50 µg/mL stood at 59.3%.

Turning to `COc1ccc(C=Cc2cc(=O)c(O)co2)cc1` [Compound (11), 3-hydroxy-6-(p-methoxystyryl)-4H-pyran-4-one], the inhibition at 50 µg/mL in series [4] (setting [12]) turned out to be 72.2%.

Regarding `O=c1cc(C=Cc2ccc(Cl)cc2)occ1O` [Compound (12), 3-hydroxy-6-(p-chlorostyryl)-4H-pyran-4-one], the inhibition at 50 µg/mL in [4] (setting [12]) is 90%.

With `O=c1cc(CO)occ1O` [Compound (13), 5-hydroxy-2-hydroxymethyl-4H-pyran-4-one], in [4], the inhibition at 50 µg/mL amounted to 1.6%.

Values taken from patent publication US5093505A, “Novel heterocyclic compound, carcinostatic agent, and carcinoma controlling method” (Wakunaga Seiyaku Kabushiki Kaisha, priority 1989, dated 1992).
